Results taken from PubChem BioAssay AID1963441 (Molecular Pharmacology Branch, DTP, NCI, 2024).
Several values for one entry are separate records, joined by “and”; a condition that tells them apart may be missing. Equal values may be shown once. Blank lines part the entries; values can stand above or below the molecule they belong to.

Test system: NCI-H1876 complex spheroid growth, % test/control
Assay: Anticancer human tumor NCI-H1876 cell line growth inhibition [Asc];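 further: compound exposure lasted 7 days starting three days after seeding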;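 on viability, T/C: 100% = DMSO vehicle control wells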
Details: for viability, T/C: stronger effect = lower value
Experimental: Multicellular complex tumor spheroid response to apoptosis pathway targeting inhibitors Alrizomadlin, Pelcitoclax, and Dasminapant in combination with a variety of drugs and investigational agents in selected tumor cell lines
The MDM2 inhibitor alrizomadlin, the Bcl-2/Bcl-xL inhibitor pelcitoclax, and the IAPs inhibitor dasminapant were evaluated both individually and in combination with standard of care and investigational anticancer small molecules within a complex spheroid model of solid tumors. . Complex spheroids include a stromal component modeled by human endothelial cells (HUVEC) and fibroblasts modeled by human mesenchymal stem cells (MSCs). The concentration ranges selected for each drug and investigational agent were based upon clinically achievable concentrations if the clinical Cmax of the agent was known.
Compounds. The drugs and investigational agents: alrizomadlin (APG-115; NSC831270), pelcitoclax (APG-1252; NSC835773), dasminapant (APG-1387;NSC834197), TAK-243 (NSC785004), copanlisib (NSC809693), olaparib (NSC753686), talazoparib (NSC767125), cobimetinib (NSC 768068), eltanexor (KPT-8602, NSC 794443), abemaciclib (NSC 768073), sotorasib (NSC818433), adagrasib (NSC 831453), MRTX-1133 (NSC 836407), Iadademestat (ORY1001, NSC 806812), and RMC-4630 (NSC839698), were obtained from the NCI Developmental Therapeutics Program Chemical Repository. The FDA-approved anticancer drug set is available from the Developmental Therapeutics Program at https://dtp.cancer.gov/organization/dscb/obtaining/available plates.htm. […] The stock solutions were prepared in dimethyl sulfoxide (DMSO, Sigma-Aldrich, St. Louis, MO, cat. D2650) at 800-fold the tested concentration and stored at -70 degrees C prior to their use. All drugs and investigational agents were tested over a range starting from a high concentration at or near the clinical Cmax and decreasing in half-log increments. If the clinical Cmax for an agent had not been determined, the highest concentration tested was 10 microM.
The patient-derived cancer (PDC) cell lines include five colon adenocarcinomas: 186277-243-T-J2-PDC, 616215-338-R-J1-PDC, 439559-082-T-J2-PDC, 463943-066-T-J2-PDC, and 519858-162-T-J1-PDC; three pancreatic carcinomas: 323965-272-R-J2-PDC, 521955-158-R6-J3-PDC, and 521955-158-R2-J5-PDC; two uterine sarcomas: 327498-152-R-J2-PDC and 993429-296-R-J1-PDC; two rhabdomyosarcomas: 755483-174-R-J1-PDC and 772245-204-R-J1-PDC; two soft tissue sarcomas: 126254-015-R-J1-PDC and 494315-158-R-J1-PDC; two malignant fibrous histiocytomas: 317291-083-R-J1-PDC and 596521-263-R-J1-PDC; two breast carcinomas: 171881-019-R-J1-PDC and 885512-296-R-J2-PDC; and one ovarian carcinoma: 6556581-035-R-J-PDC were obtained from the NCI PDMR, (https://pdmr.cancer.gov). The established cell lines HSSY-2 synovial sarcoma (RRID:CVCL 8719), SYO-1 synovial sarcoma (RRID:CVCL_7146), MPNST malignant peripheral neural sheath tumor were obtained from the Sloan Kettering Institute. The following established cell lines were purchased from the American Type Culture Collection (ATCC, Manassas, VA), Sor the received from the NCI repository:, PANC-1 pancreatic carcinoma (CRL-1469, RRID:CVCL_0480), OVCAR-5 ovarian carcinoma (RRID:CVCL_1628), OVCAR-8 ovarian carcinoma (RRID:CVCL_1629), , MCF-7 breast carcinoma (CRL-12584, RRID:CVCL_0031), MDA-MB-231 breast carcinoma (CRL-12532, RRID:CVCL_0062), NCI-H1876 small cell lung carcinoma (CRL-5902, RRID:CVCL_1503), NCI-H510A small cell lung carcinoma (HTB-184, RRID:CVCL_1565), NCI-H1417 (CRL-5869, RRID:CVCL_1469), and NCI-H196 small cell lung carcinoma (CRL-5823, RRID:CVCL_1509). Dr. Peter Houghton (Greehey Children's Cancer Research Institute, University of Texas Health Science Center, San Antonio, TX) provided Rh-18 rhabdomyosarcoma (RRID:CVCL_1659). Pooled donor human umbilical vein endothelial cells (HUVEC, Lonza, cat. CC-2519) and human mesenchymal stem cells (hMSC, Lonza, cat. PT-2501) were purchased from Lonza (Walkersville, MD).
Cell Culture. […]

[1] = curve of first compound, second compound 0.0316 µM
[2] = curve of first compound, second compound 0.1 µM
[3] = curve of first compound, second compound 0.316 µM
[4] = curve of first compound, second compound 1 µM
[5] = curve of first compound, second compound 3.16 µM
[6] = curve of first compound, second compound 10 µM
[7] = second compound 0.0316 µM, first compound 0.0316 µM
[8] = second compound 0.0316 µM, first compound 0.1 µM
[9] = second compound 0.0316 µM, first compound 0.316 µM
[10] = second compound 0.0316 µM, first compound 1 µM
[11] = second compound 0.1 µM, first compound 0.0316 µM
[12] = second compound 0.1 µM, first compound 0.1 µM
[13] = second compound 0.1 µM, first compound 0.316 µM
[14] = second compound 0.1 µM, first compound 1 µM
[15] = second compound 0.316 µM, first compound 0.0316 µM
[16] = second compound 0.316 µM, first compound 0.1 µM
[17] = second compound 0.316 µM, first compound 0.316 µM
[18] = second compound 0.316 µM, first compound 1 µM
[19] = second compound 1 µM, first compound 0.0316 µM
[20] = second compound 1 µM, first compound 0.1 µM
[21] = second compound 1 µM, first compound 0.316 µM
[22] = second compound 1 µM, first compound 1 µM
[23] = second compound 3.16 µM, first compound 0.0316 µM
[24] = second compound 3.16 µM, first compound 0.1 µM
[25] = second compound 3.16 µM, first compound 0.316 µM
[26] = second compound 3.16 µM, first compound 1 µM
[27] = second compound 10 µM, first compound 0.0316 µM
[28] = second compound 10 µM, first compound 0.1 µM
[29] = second compound 10 µM, first compound 0.316 µM
[30] = second compound 10 µM, first compound 1 µM

IC50 (curve of compound): > 1000 nM
Structure (SMILES): O=C(c1ccc(F)c(F)c1Nc1ccc(I)cc1F)N1CC(O)([C@@H]2CCCCN2)C1
viability, T/C (compound 0.00316 µM): 101% and 103% (2×)
viability, T/C (compound 0.01 µM): 86.9% and 95% and 94%
viability, T/C (compound 0.0316 µM): 93.7% and 92.9% and 99%
viability, T/C (compound 0.1 µM): 97.5% and 91.4% and 95%
viability, T/C (compound 0.316 µM): 86.5% and 84.5% and 83.9%
viability, T/C (compound 1 µM): 79.9% and 75.1% and 76.9%

IC50 [1]: 243 nM
IC50 [2]: 225 nM
IC50 [3]: 207 nM
IC50 [4]: 149 nM
IC50 [5]: 118 nM
IC50 [6]: 102 nM
Structure (SMILES): COc1c(OCCCN2CCOCC2)ccc2c3n(c(=NC(=O)c4cnc(N)nc4)nc12)CCN3 + Cc1c(S(C)(=O)=O)c(-c2cc(F)cc(N3CCN(c4ccc(NS(=O)(=O)c5ccc(NC(CCN6CCC(C(=O)OCCCP(=O)(O)O)CC6)CSc6ccccc6)c(S(=O)(=O)C(F)(F)F)c5)cc4)CC3)c2)c(-c2ccc(Cl)cc2)n1C(C)C
viability, T/C (second compound 0.0316 µM, first compound 0.00316 µM): 94.3%
viability, T/C (second compound 0.0316 µM, first compound 0.01 µM): 88%
viability, T/C [7]: 91.3%
viability, T/C [8]: 62.4%
viability, T/C [9]: 49.3%
viability, T/C [10]: 35.9%
viability, T/C (second compound 0.1 µM, first compound 0.00316 µM): 93.2%
viability, T/C (second compound 0.1 µM, first compound 0.01 µM): 88%
viability, T/C [11]: 88.2%
viability, T/C [12]: 63.2%
viability, T/C [13]: 45.4%
viability, T/C [14]: 29.6%
viability, T/C (second compound 0.316 µM, first compound 0.00316 µM): 94.3%
viability, T/C (second compound 0.316 µM, first compound 0.01 µM): 94.4%
viability, T/C [15]: 87.6%
viability, T/C [16]: 62.2%
viability, T/C [17]: 43.2%
viability, T/C [18]: 20.1%
viability, T/C (second compound 1 µM, first compound 0.00316 µM): 98.5%
viability, T/C (second compound 1 µM, first compound 0.01 µM): 94.7%
viability, T/C [19]: 82.5%
viability, T/C [20]: 57.3%
viability, T/C [21]: 35%
viability, T/C [22]: 18.7%
viability, T/C (second compound 3.16 µM, first compound 0.00316 µM): 101%
viability, T/C (second compound 3.16 µM, first compound 0.01 µM): 84.7%
viability, T/C [23]: 77.9%
viability, T/C [24]: 52.8%
viability, T/C [25]: 29.2%
viability, T/C [26]: 10.7%
viability, T/C (second compound 10 µM, first compound 0.00316 µM): 96.7%
viability, T/C (second compound 10 µM, first compound 0.01 µM): 90.3%
viability, T/C [27]: 74.5%
viability, T/C [28]: 48.4%
viability, T/C [29]: 28.3%
viability, T/C [30]: 8.91%

IC50 (curve of compound): > 1000 nM
Structure (SMILES): CCN1CCN(Cc2ccc(Nc3ncc(F)c(-c4cc(F)c5nc(C)n(C(C)C)c5c4)n3)nc2)CC1
viability, T/C (compound 0.00316 µM): 101% and 103% and 104%
viability, T/C (compound 0.01 µM): 94.1% and 101% and 89.8%
viability, T/C (compound 0.0316 µM): 97.1% and 101% and 106%
viability, T/C (compound 0.1 µM): 105% and 100% and 106%
viability, T/C (compound 0.316 µM): 114% (2×) and 120%
viability, T/C (compound 1 µM): 126% and 132% and 131%

IC50 [1]: > 10000 nM
IC50 [2]: > 10000 nM
IC50 [3]: > 10000 nM
IC50 [4]: 9960 nM
IC50 [5]: 8470 nM
IC50 [6]: 7790 nM
Structure (SMILES): O=C(c1cc(Cc2n[nH]c(=O)c3ccccc23)ccc1F)N1CCN(C(=O)C2CC2)CC1 + Cc1c(S(C)(=O)=O)c(-c2cc(F)cc(N3CCN(c4ccc(NS(=O)(=O)c5ccc(NC(CCN6CCC(C(=O)OCCCP(=O)(O)O)CC6)CSc6ccccc6)c(S(=O)(=O)C(F)(F)F)c5)cc4)CC3)c2)c(-c2ccc(Cl)cc2)n1C(C)C
viability, T/C [7]: 99.6%
viability, T/C [8]: 99.1%
viability, T/C [9]: 92.8%
viability, T/C [10]: 101%
viability, T/C (second compound 0.0316 µM, first compound 3.16 µM): 97.2%
viability, T/C (second compound 0.0316 µM, first compound 10 µM): 74%
viability, T/C [11]: 100%
viability, T/C [12]: 90.9%
viability, T/C [13]: 98.2%
viability, T/C [14]: 96.2%
viability, T/C (second compound 0.1 µM, first compound 3.16 µM): 95.9%
viability, T/C (second compound 0.1 µM, first compound 10 µM): 73.6%
viability, T/C [15]: 90.2%
viability, T/C [16]: 96.7%
viability, T/C [17]: 93.5%
viability, T/C [18]: 97.9%
viability, T/C (second compound 0.316 µM, first compound 3.16 µM): 96%
viability, T/C (second compound 0.316 µM, first compound 10 µM): 61.2%
viability, T/C [19]: 111%
viability, T/C [20]: 97.7%
viability, T/C [21]: 90.1%
viability, T/C [22]: 102%
viability, T/C (second compound 1 µM, first compound 3.16 µM): 99.2%
viability, T/C (second compound 1 µM, first compound 10 µM): 49.8%
viability, T/C [23]: 101%
viability, T/C [24]: 94.5%
viability, T/C [25]: 97.1%
viability, T/C [26]: 96%
viability, T/C (second compound 3.16 µM, first compound 3.16 µM): 86.8%
viability, T/C (second compound 3.16 µM, first compound 10 µM): 43.6%
viability, T/C [27]: 95.2%
viability, T/C [28]: 98.9%
viability, T/C [29]: 86.1%
viability, T/C [30]: 90.1%
viability, T/C (second compound 10 µM, first compound 3.16 µM): 95.3%
viability, T/C (second compound 10 µM, first compound 10 µM): 38.1%

IC50 (curve of compound): > 10000 nM
Structure (SMILES): O=C(c1cc(Cc2n[nH]c(=O)c3ccccc23)ccc1F)N1CCN(C(=O)C2CC2)CC1
viability, T/C (compound 0.0316 µM): 94.3% and 103% and 108%
viability, T/C (compound 0.1 µM): 84.8% and 92.7% and 94%
viability, T/C (compound 0.316 µM): 105% and 102% (2×)
viability, T/C (compound 1 µM): 115% and 118% and 99.5%
viability, T/C (compound 3.16 µM): 96.9% and 121% and 98.1%
viability, T/C (compound 10 µM): 75.5% and 85.2% and 68.7%
